One molecule from patent US8119691B2, “Method for treating airway hyper-responsiveness with lipoxin analogs” (National Institutes of Health (NIH), priority 2001, dated 2012) can be followed below.

Data set [1] relates to OVA sensitized and challenged mice. Nature of the data set: Leukocytes in bronchoalveolar lavage fluid (Wright-Giemsa stain) of OVA sensitized and challenged mice. Format: in vivo, mouse (BALB/c). As to conditions: LXa i.v. On the procedure: FIG. 3. […] Bronchoalveolar lavage fluids were obtained from OVA sensitized and challenged mice. Leukocytes in bronchoalveolar lavage fluid were enumerated and identified after Wright-Giemsa stain (a). Mediator profile of (b) specific cytokines (IL-5, IL-12, IL-13, eotaxin and TNFα), and lipid mediators, including PGE2 (c), LTB4 and cysLT's (d) were determined by ELISA's in materials from control animals and those receiving LXa (10 μg, i.v.). Results are expressed as mean±SEM (n≧6, d≧2). *P<0.05 by Student's t-test compared to control animals.
(§1) Sensitization and challenge protocols. Five to seven week old male BALB/c (Charles River Laboratories, Wilmington, Mass.) or female hCD11b-hALX FvB transgenic mice were housed in isolation cages under viral antibody-free conditions. […] On day 18, 24 h after the last aerosol challenge, airway responsiveness to intravenous methacholine (33-1000 μg/kg) was measured, bilateral bronchoalveolar lavage (BAL) (2 aliquots of 1 ml PBS plus 0.6 mM EDTA) was performed and tissues (whole blood, lungs, mediastinal lymph nodes and spleen) were harvested for histological analysis. Lung resistance (RL) was measured using a sealed constant mass plethysmograph. […] For mice studied using a whole body plethysmograph to assess airway responsiveness (Buxco), each mouse was placed into a chamber and box pressure/time waveform was analyzed to yield the indicator of airflow obstruction, enhanced pause (Penh). […] Readings were initiated at 3 min and continued for 12 min. Peak and one min average Penh values were determined. Serum total IgE levels were determined by ELISA (Crystal Chem, Chicago, Ill.). […]
Allergen-initiated respiratory inflammation. Measurement of inflammatory mediators was determined in cell-free BAL fluid (2000 g, 10 min) by sensitive and specific ELISA's, in tandem, for interleukin-5 (IL-5), IL-13, eotaxin, tumor necrosis factor (TNFα) (R&D Systems, Minneapolis, Minn.), LTB4, cysteinyl LT, PGE2 (Cayman Chemical Co., Ann Arbor, Mich.), and LXA4 (Neogen, Lexington, Ky.). […]

Data set [2] deals with OVA sensitized mice. Put plainly: Airway responsiveness to intravenous methacholine (lung resistance, ED200) in OVA sensitized and aerosol challenged mice. Format: in vivo, mouse (BALB/c). On the procedure: FIG. 1. Inhibition of airway hyper-responsiveness with LXa. OVA sensitized mice were treated with LXa ([…]) (o) or vehicle (•) prior to OVA aerosol challenge. Airway reactivity was determined by methacholine-dependent change in lung resistance (a) and calculation of ED200 (b). Results are expressed as mean±SEM (n≧17 in (a) and n≧6 (b)). *P<0.05 by Student's t-test compared to control animals.
After systemic sensitization to ovalbumin (OVA, 10 μg i.p.), male Balb/c mice (5-7 weeks) were exposed to aerosolized OVA (6%, 25 min) on four successive days. 24 hours after the last aerosol, bronchial responsiveness to intravenous methacholine was determined (as in refs. 14, 15), bronchoalveolar lavage was performed and tissues were harvested for microscopy. […] After allergen sensitization and aerosol challenge, high levels of both CysLT (139.0+/−27.3 pg CysLT/ml, mean+/−SEM, n=9) and PGE2 (1117.7+/−103.8 pg PGE2/ml, mean+/−SEM, n=5) in bronchoalveolar lavage (BAL) (Table 1) were identified. In these same BAL fluids, LXA4 was also present (15.0+/−3.3 pg LXA4/ml, mean+/−SEM, n=5) at levels similar to LTB4 (6.4+/−2.3 pg LTB4/ml, mean+/−SEM, n=9), but in 10- to 100-fold lower concentrations than CysLT's and PGE2, respectively (Table 1). LXA4 was not detected in cell-free BAL supernatants from non-immunized mice.
as §1, with “conditions. After Harvard Medical Area IRB approval (Protocol #02570), mice were sensitized with intraperitoneal injections of ovalbumin (OVA) (Grade III; Sigma Chemical Co., St. Louis, Mo.) (10 μg) plus 1 mg aluminum hydroxide (ALUM) (J.T. Baker Chemical Co.; Phillipsburg, N.J.) as adjuvant in 0.2 ml PBS on days 0 and 7.” for “conditions.”

Take `COC(=O)CCC[C@H](O)[C@H](O)/C=C/C=C/C=C\C=C\[C@H](O)COc1ccc(F)cc1` [LXa, 15-epi,16-para-fluoro-phenoxy-LXA4-methyl ester]: in data set [1], the BAL eosinophils entry is recorded as “sharply reduced in a dose-dependent fashion”, the BAL lymphocytes result is recorded as “sharply reduced in a dose-dependent fashion” and the BAL total leukocytes entry is “sharply reduced in a dose-dependent fashion”. In data set [2] (LXa 10 μg i.v., OVA sensitized and challenged mice), the ED200 to methacholine result is “approximated the responses of control mice that had been sensitized but not challenged with OVA”. The “ED200 to methacholine, LXa administration alone” value in data set [2] (LXa alone, compared to control mice) is “no significant differences in ED200 compared to control mice”. Besides, the “bronchoconstriction in response to methacholine (change in lung resistance)” value in data set [2] (LXa i.v. at least 60 min prior to OVA challenge, OVA sensitized mice) is listed as “significantly inhibited bronchoconstriction in response to methacholine in a dose-dependent manner”. In data set [2] (LXa treated mice), the “deleterious physiologic or behavioral effects” value is “Neither deleterious physiologic nor behavioral effects were evident”.
